The structures appear in SMILES notation. pIC50: −log10 of the molar value. Several values for one entry are separate records, joined by “and”; a condition that tells them apart may be missing. Identical values can stand only once.

Test [1] concerns the target T1, Gonadotropin-releasing hormone receptor (Rattus norvegicus, UniProt P30969).
T1 sequence (P30969 whole entry): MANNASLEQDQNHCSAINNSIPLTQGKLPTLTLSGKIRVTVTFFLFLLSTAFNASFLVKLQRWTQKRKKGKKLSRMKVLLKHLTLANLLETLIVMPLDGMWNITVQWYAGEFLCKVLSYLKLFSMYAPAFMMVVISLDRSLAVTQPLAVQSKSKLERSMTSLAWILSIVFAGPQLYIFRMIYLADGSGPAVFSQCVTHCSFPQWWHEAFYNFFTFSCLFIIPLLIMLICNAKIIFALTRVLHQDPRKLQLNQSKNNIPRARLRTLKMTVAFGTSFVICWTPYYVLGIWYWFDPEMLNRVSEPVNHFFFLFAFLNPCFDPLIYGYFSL
In words: Binding affinity to Gonadotropin-releasing hormone receptor (GnRHr) in rat pituitary cells.

In test [2] the target is T1, Gonadotropin-releasing hormone receptor. In words: Compound was evaluated for its antagonism in rat primary pituitary cell assay (rLH). In kind it is functional, cell-based, Pituitary gland cell.
Test [3] deals with T2, Gonadotropin-releasing hormone receptor (Homo sapiens, UniProt P30968).
T2 sequence (P30968 whole entry): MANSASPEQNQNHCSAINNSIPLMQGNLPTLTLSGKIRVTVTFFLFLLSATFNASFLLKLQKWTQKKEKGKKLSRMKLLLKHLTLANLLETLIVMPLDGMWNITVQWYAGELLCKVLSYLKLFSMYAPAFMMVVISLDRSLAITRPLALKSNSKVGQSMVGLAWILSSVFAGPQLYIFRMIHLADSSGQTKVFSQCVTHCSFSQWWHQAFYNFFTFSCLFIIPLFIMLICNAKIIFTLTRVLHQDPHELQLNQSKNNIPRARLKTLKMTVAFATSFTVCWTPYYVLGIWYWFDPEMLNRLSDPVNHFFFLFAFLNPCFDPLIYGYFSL
In words: Inhibition of recombinant human Gonadotropin-releasing hormone receptor.

A short description of test [4]: Compound was evaluated for its antagonism in CHO cells expressing the human receptor (hPI). In kind it is functional, cell-based.
Test [5] concerns the target T1, Gonadotropin-releasing hormone receptor. In words: Compound was evaluated for its inhibitory activity against rat pituitary Gonadotropin-releasing hormone receptor.

In test [1], `O=c1[nH]c2cc(Cl)c([N+](=O)[O-])cc2c(OCCC2CCCCN2)c1-c1ccccc1Cl` (stereo not drawn) showed a pIC50 of 6.44. The same measure, in the same setting: the value for `Cc1cc(CC(N)=O)cc(-c2c(O)nc3cc(Cl)c([N+](=O)[O-])cc3c2OCCC2CCCCN2)c1` (stereo not drawn) was 7.15. With `Cc1cc(C)cc(-c2c(O)nc3cc(Cl)c(NC(=O)Nc4ccccn4)cc3c2OCCC2CCCCN2)c1` (stereo not drawn), the values for the negative logarithm of the IC50 (pIC50) in test [1] and in test [2] were 7.82 and 6.33, respectively. Consider `Cc1cc(C)cc(-c2c(O)nc3cc(Cl)c(NC(=O)Nc4ncccn4)cc3c2OCCC2CCCCN2)c1` (stereo not drawn), for which the negative logarithm of the IC50 (pIC50) in test [1] was 8.22. For `Cc1cc(C)cc(-c2c(O)nc3cc(Cl)c(NC(=O)c4cnccn4)cc3c2OCCC2CCCCN2)c1` (stereo not drawn), the pIC50 was 8.00 in test [3], 8.74 in test [1] and 5.72 in test [2]. In test [1], `O=[N+]([O-])c1cc2c(OCCC3CCCCN3)c(-c3ccc(Cl)c(Cl)c3)c(O)nc2cc1Cl` (stereo not drawn) had a pIC50 of 7.54. The same measure, in the same setting: in the case of `COc1ccc(-c2c(O)nc3cc(Cl)c([N+](=O)[O-])cc3c2OCCC2CCCCN2)cc1OC` (stereo not drawn) it was 6.22; in that of `O=c1[nH]c2cc(Cl)c([N+](=O)[O-])cc2c(OCCC2CCCCN2)c1-c1cc(C(F)(F)F)cc(C(F)(F)F)c1` (stereo not drawn), 7.15. Consider `Cc1cc(C)cc(-c2c(O)nc3cc(Cl)c(NC(=O)NC4CC4)cc3c2OCCC2CCCCN2)c1` (stereo not drawn), for which the pIC50 in test [4] is 7.92 and 8.30; in test [5], 8.96; in test [1], 9.10; in test [2], 6.43 and 6.17. On to `Cc1ccc(-c2c(OCCC3CCCCN3)c3cc([N+](=O)[O-])c(Cl)cc3[nH]c2=O)cc1C` (stereo not drawn), for which, in test [1], the pIC50 is 7.74. For the compound `Cc1cc(C)cc(-c2c(OCCC3CCCCN3)c3cc(NC(=O)Nc4ccccc4)c(Cl)cc3[nH]c2=O)c1` (stereo not drawn), the results for the pIC50 in test [1] and in test [2] were 8.00 and 5.48, respectively. For `Cc1cc(C)cc(-c2c(OCC[C@@H]3CCCCN3)c3cc(NC(=O)NC4CC4)c(Cl)cc3[nH]c2=O)c1`, the pIC50 in test [3] was 8.64. In test [1], `O=c1[nH]c2cc(Cl)c([N+](=O)[O-])cc2c(OCCC2CCCCN2)c1-c1ccsc1` (stereo not drawn) showed a pIC50 of 6.05. The same measure, in the same setting: in the case of `Cc1cc(CC#N)cc(-c2c(O)nc3cc(Cl)c([N+](=O)[O-])cc3c2OCCC2CCCCN2)c1` (stereo not drawn) it was 7.74. Still for that read-out and setting: the value for `O=[N+]([O-])c1cc2c(OCCC3CCCCN3)c(-c3cccc(F)c3)c(O)nc2cc1Cl` (stereo not drawn) was 7.28; that for `O=c1[nH]c2cc(Cl)c([N+](=O)[O-])cc2c(OCCC2CCCCN2)c1-c1cc(Cl)cc(Cl)c1` (stereo not drawn) was 7.62. Still for that read-out and setting: in the case of `CC(C)(C)c1ccc(-c2c(OCCC3CCCCN3)c3cc([N+](=O)[O-])c(Cl)cc3[nH]c2=O)cc1` (stereo not drawn) it was 6.70; in that of `O=c1[nH]c2cc(Cl)c([N+](=O)[O-])cc2c(OCCC2CCCCN2)c1-c1ccc(Cl)s1` (stereo not drawn), 7.64. `Cc1cc(C)cc(-c2c(OCC[C@@H]3CCCCN3)c3cc(NC(=O)Nc4cnccn4)c(Cl)cc3[nH]c2=O)c1`: the pIC50 in test [3] is 8.96. `Cc1cc(C)cc(-c2c(O)nc3cc(Cl)c(NC(=O)Nc4cncnc4)cc3c2OCC[C@@H]2CCCCN2)c1`: the figures for the pIC50 in test [3] and in test [4] were 7.24 and 6.05, respectively. `O=[N+]([O-])c1cccc(-c2c(O)nc3cc(Cl)c([N+](=O)[O-])cc3c2OCCC2CCCCN2)c1` (stereo not drawn) showed a pIC50 in test [1] of 7.00. With `Cc1cc(C)cc(-c2c(O)nc3cc(Cl)c(CC(=O)Nc4ccncn4)cc3c2OCCC2CCCCN2)c1` (stereo not drawn), the pIC50 in test [4] was 6.64; in test [1] it was 8.10; in test [2], 5.60. `Cc1cccc(-c2c(O)nc3cc(Cl)c([N+](=O)[O-])cc3c2OCCC2CCCCN2)c1` (stereo not drawn) showed a pIC50 in test [1] of 7.57.

Regarding `O=C(Nc1cc2c(OCCC3CCCCN3)c(-c3ccc4ccccc4c3)c(=O)[nH]c2cc1Cl)NC1CC1` (stereo not drawn), the pIC50 in test [1] was 7.17. On to `O=C(Nc1ccncn1)c1cc2c(OCC[C@@H]3CCCCN3)c(-c3ccc(Cl)c(Cl)c3)c(O)nc2cc1Cl`, for which the negative-log IC50 (pIC50) was 9.00 in test [3] and 8.11 in test [4]. With `O=[N+]([O-])c1cc2c(OCCC3CCCCN3)c(-c3cccc(Br)c3)c(O)nc2cc1Cl` (stereo not drawn), in test [1], the negative-log IC50 (pIC50) was 7.40.

Regarding `O=C(Nc1cc2c(OCCC3CCCCN3)c(-c3ccc(Cl)c(Cl)c3)c(O)nc2cc1Cl)NC1CC1` (stereo not drawn), the pIC50 in test [1] was 7.74.

For the compound `COc1ccc(-c2c(OCCC3CCCCN3)c3cc([N+](=O)[O-])c(Cl)cc3[nH]c2=O)cc1C` (stereo not drawn), the pIC50 in test [1] is 7.40. For the compound `O=C(Nc1ccncn1)c1cc2c(OCC[C@@H]3CCCCN3)c(-c3cc(Cl)cc(Cl)c3)c(O)nc2cc1Cl`, the pIC50 was 8.96 in test [3] and 8.07 in test [4]. The compound `O=c1[nH]c2cc(Cl)c([N+](=O)[O-])cc2c(OCCC2CCCCN2)c1-c1cccc(Cl)c1` (stereo not drawn) had a negative logarithm of the IC50 (pIC50) in test [1] of 7.40. As for `Cc1cc(C)cc(-c2c(O)nc3cc(Cl)c(NC(=O)c4cnccn4)cc3c2OCC[C@@H]2CCCCN2)c1`, the results for the pIC50 in test [3] and in test [4] were 8.70 and 7.64, respectively.

Compound `Cc1ccc(-c2c(O)nc3cc(Cl)c([N+](=O)[O-])cc3c2OCCC2CCCCN2)c(C)c1` (stereo not drawn) had a negative logarithm of the IC50 (pIC50) in test [1] of 6.40. As for `O=c1[nH]c2cc(Cl)c([N+](=O)[O-])cc2c(OCCC2CCCCN2)c1-c1ccccc1` (stereo not drawn), in test [1], the pIC50 was 6.39.

In turn, `O=C(Nc1cc2c(OCCC3CCCCN3)c(-c3cccc(Br)c3)c(=O)[nH]c2cc1Cl)NC1CC1` (stereo not drawn) gave a pIC50 in test [1] of 8.22.

In test [1], `CCN(CC)Cc1cc(C)cc(-c2c(OCCC3CCCCN3)c3cc([N+](=O)[O-])c(Cl)cc3[nH]c2=O)c1` (stereo not drawn) had a pIC50 of 6.57. The same measure, in the same setting: the value for `O=c1[nH]c2cc(Cl)c([N+](=O)[O-])cc2c(OCCC2CCCCN2)c1-c1ccc2ccccc2c1` (stereo not drawn) was 7.28.

Take `Cc1cc(C)cc(-c2c(OCC[C@@H]3CCCCN3)c3cc(NC(=O)Nc4ccncn4)c(Cl)cc3[nH]c2=O)c1`: the pIC50 in test [3] is 8.74. Regarding `Cc1cc(-c2c(O)nc3cc(Cl)c(C(=O)Nc4ccncn4)cc3c2OCC[C@@H]2CCCCN2)ccc1I`, the results for the pIC50 in test [3] and in test [4] were 9.30 and 8.15, respectively. Regarding `Cc1cc(-c2c(O)nc3cc(Cl)c(C(=O)Nc4ccncn4)cc3c2OCC[C@@H]2CCCCN2)cc(C)c1C`, the pIC50 in test [3] is 9.52; in test [4], 8.66. The corresponding values for `O=C(Nc1ccncn1)c1cc2c(OCC[C@@H]3CCCCN3)c(-c3ccc(Cl)s3)c(O)nc2cc1Cl` are 8.41 and 7.28.

Regarding `Cc1cc(C)cc(-c2c(O)nc3cc(Cl)c(NC(=O)Nc4cccnc4)cc3c2OCCC2CCCCN2)c1` (stereo not drawn), the pIC50 in test [1] is 7.70; in test [2] it was 5.89. Turning to `O=C(Nc1ccncn1)c1cc2c(OCC[C@@H]3CCCCN3)c(-c3ccc4c(c3)CCC4)c(O)nc2cc1Cl`, the figures for the pIC50 in test [3] and in test [4] were 9.15 and 7.80, respectively.

In test [1], `O=c1[nH]c2cc(Cl)c([N+](=O)[O-])cc2c(OCCC2CCCCN2)c1-c1ccc(Cl)cc1` (stereo not drawn) showed a pIC50 of 6.80. Still for that read-out and setting: the value for `O=c1[nH]c2cc(Cl)c([N+](=O)[O-])cc2c(OCCC2CCCCN2)c1-c1cccs1` (stereo not drawn) was 6.66; that for `O=[N+]([O-])c1cc2c(OCCC3CCCCN3)c(-c3ccc(-c4ccccc4)c(Cl)c3)c(O)nc2cc1Cl` (stereo not drawn) was 6.05. As to `CC(=O)OCc1cc(C)cc(-c2c(O)nc3cc(Cl)c([N+](=O)[O-])cc3c2OCCC2CCCCN2)c1` (stereo not drawn), in test [1], the pIC50 was 7.35. As for `Cc1ccc(-c2c(O)nc3cc(Cl)c(C(=O)Nc4ccncn4)cc3c2OCC[C@@H]2CCCCN2)cc1C`, the pIC50 in test [3] is 9.15; in test [4], 8.19. Consider `Cc1cc(-c2c(O)nc3cc(Cl)c([N+](=O)[O-])cc3c2OCCC2CCCCN2)cc(C(C)O)c1` (stereo not drawn), for which, in test [1], the pIC50 is 7.20. On to `Cc1cc(C)cc(-c2c(O)nc3cc(Cl)c(NC(=O)c4cncnc4)cc3c2OCC[C@@H]2CCCCN2)c1`, for which the pIC50 is 6.65 in test [4] and 7.60 in test [1]. The compound `Cc1ccc(-c2c(OCCC3CCCCN3)c3cc(NC(=O)NC4CC4)c(Cl)cc3[nH]c2=O)cc1C` (stereo not drawn) gave a pIC50 in test [1] of 8.22.

In turn, `Cc1cccc(-c2c(OCCC3CCCCN3)c3cc(NC(=O)NC4CC4)c(Cl)cc3[nH]c2=O)c1` (stereo not drawn) had a pIC50 in test [1] of 7.64. Same read-out and setting: in the case of `Cc1cc(C)cc(-c2c(O)nc3cc(Cl)c(NC(=O)Nc4ccncc4)cc3c2OCCC2CCCCN2)c1` (stereo not drawn) it was 7.40. As for `Cc1cc(C)cc(-c2c(O)nc3cc(Cl)c(NC(=O)Nc4cnccn4)cc3c2OCCC2CCCCN2)c1` (stereo not drawn), the pIC50 in test [4] is 8.05; in test [1] it was 9.52; in test [2] it was 7.25.

Regarding `Cc1cc(C)cc(-c2c(OCCC3CCCCN3)c3cc(NC(=O)Nc4ccncn4)c(Cl)cc3[nH]c2=O)c1` (stereo not drawn), the pIC50 in test [5] was 9.40; in test [1], 9.22; in test [2], 6.63 and 7.28.

As a reminder, the pIC50 is the IC50 on a negative log10 scale, so that one unit is a factor of ten.

Values taken from ChEMBL document CHEMBL1133257, “Quinolones as gonadotropin releasing hormone (GnRH) antagonists: simultaneous optimization of the C(3)-aryl and C(6)-substituents” (Bioorg Med Chem Lett, 2000).
